Results on 36 compounds are retold here after patent US9688698B2, “Heteroaromatic compounds and their use as dopamine D1 ligands” (PFIZER INC., priority 2014, dated 2017).

Structures can show the parent of a compound that is named as a salt.

In the test the target is T1, Human D1 Receptor (Homo sapiens, UniProt P21728).
T1 construct: expressed in transfected cells; host or cells: LTK cell line over-expressing the D1 receptor
T1 sequence (P21728 whole entry): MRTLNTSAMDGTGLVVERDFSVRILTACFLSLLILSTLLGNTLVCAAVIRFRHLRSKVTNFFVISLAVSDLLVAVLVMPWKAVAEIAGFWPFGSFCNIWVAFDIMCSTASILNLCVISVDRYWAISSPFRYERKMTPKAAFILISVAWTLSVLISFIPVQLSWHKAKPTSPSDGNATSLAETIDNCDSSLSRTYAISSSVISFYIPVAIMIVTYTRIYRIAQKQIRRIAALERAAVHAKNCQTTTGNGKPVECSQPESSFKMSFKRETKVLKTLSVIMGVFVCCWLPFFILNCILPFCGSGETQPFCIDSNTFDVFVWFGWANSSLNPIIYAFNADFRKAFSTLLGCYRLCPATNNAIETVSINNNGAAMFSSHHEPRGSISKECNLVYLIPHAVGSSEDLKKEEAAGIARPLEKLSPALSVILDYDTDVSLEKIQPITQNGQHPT
The experiment in a line: Human D1 Receptor Binding Assay ([3H]-SCH23390 competition binding). The conditions noted are these: over-expressing LTK human cell lines; 0.5 nM [3H]-SCH23390; 30 min at 37° C.; footnote a = geometric mean of ≧5 determinations, footnote b = single determination; read-out: Human D1 Receptor Binding, Ki (nM); Geometric mean of 2-4 determinations (unless otherwise indicated). How it is done: The affinity of the compounds described herein was determined by competition binding assays similar to those described in Ryman-Rasmussen et al., “Differential activation of adenylate cyclase and receptor internalization by novel dopamine D1 receptor agonists”, Molecular Pharmacology 68(4):1039-1048 (2005).
D1 binding assays were performed using over-expressing LTK human cell lines. […] These ligand and tissue concentrations were used in time course studies to determine linearity and equilibrium conditions for binding. Binding was at equilibrium with the specified amount of tissue in 30 minutes at 37° C. […] The pellet was resuspended in assay buffer [50 mM Tris (pH 7.4@RT) containing 4 mM MgSO4 and 0.5 mM EDTA]. […] Non-specific binding was determined by radioligand binding in the presence of a saturating concentration of (+)-Butaclamol (10 μM), a D1 antagonist. After a 30 minute incubation period at 37° C., assay samples were rapidly filtered through Unifilter-96 GF/B PEI-coated filter plates and rinsed with 50 mM Tris buffer (pH 7.4 at 4° C.). […] The IC50 value (concentration at which 50% inhibition of specific binding occurs) was calculated by linear regression of the concentration-response data in Microsoft Excel. Ki values were calculated according to the Cheng-Prusoff equation: […]
Take `COc1cc(Oc2nccc3ccsc23)ccc1-c1nccnc1C` [Example 10, 7-[3-methoxy-4-(3-methylpyrazin-2-yl)phenoxy]thieno[2,3-c]pyridine]: the inhibitory constant (Ki) came out at 44.9 nM. On to `Cc1cc(Oc2nccc3ccoc23)ccc1-c1c(C)ncc2nccn12` [Example 9, 5-[4-(furo[2,3-c]pyridin-7-yloxy)-2-methylphenyl]-6-methylimidazo[1,2-a]pyrazine], for which the Ki worked out at 57.2 nM. In the case of `Cc1ncnc(C)c1-c1ccc(Oc2ncnc3ccsc23)cc1Cl` [Example 17, 4-[3-chloro-4-(4,6-dimethylpyrimidin-5-yl)phenoxy]thieno[3,2-d]pyrimidine], the Ki was found to be 25.4 nM. Next, `Cc1nc2cnccc2n1-c1ccc(Oc2nccc3ccsc23)cc1` [Example 51, 2-methyl-1-[4-(thieno[2,3-c]pyridin-7-yloxy)phenyl]-1H-imidazo[4,5-c]pyridine, trifluoroacetate salt]: 89.5 nM; `COc1cc(Oc2ncnc3ccsc23)ccc1-c1c(C)ncnc1C` [Example 23, 4-[4-(4,6-dimethylpyrimidin-5-yl)-3-methoxyphenoxy]thieno[3,2-d]pyrimidine]: 178 nM; `Cc1ncnc(C)c1-c1cc(F)c(Oc2ncnc3ccsc23)cc1F` [Example 21, 4-[4-(4,6-dimethylpyrimidin-5-yl)-2,5-difluorophenoxy]thieno[3,2-d]pyrimidine]: 62.4 nM. Consider `Cc1cc(Oc2nccc3ccsc23)c(F)cc1-c1c(C)ncnc1C` [Example 38, 7-[4-(4,6-dimethylpyrimidin-5-yl)-2-fluoro-5-methylphenoxy]thieno[2,3-c]pyridine], for which the Ki was 7.9 nM. `Cc1cc(Oc2nccc3ccsc23)ccc1-c1c(C)ncnc1C#N` (single isomer, unassigned; ent-2) [Example 46, 6-methyl-5-[2-methyl-4-(thieno[2,3-c]pyridin-7-yloxy)phenyl]pyrimidine-4-carbonitrile, ENT-2]: the Ki stood at 15.1 nM. Consider `Cc1cc(Oc2nccc3ccsc23)ccc1-c1c(C)cnnc1C` [Example 14, 7-[4-(3,5-dimethylpyridazin-4-yl)-3-methylphenoxy]thieno[2,3-c]pyridine], for which the Ki worked out at 3.3 nM.

Take `Cc1cc(Oc2nccc3ncsc23)ccc1-c1cn[nH]c(=O)c1C` [Example 27, 4-methyl-5-[2-methyl-4-([1,3]thiazolo[5,4-c]pyridin-4-yloxy)phenyl]pyridazin-3(2H)-one]: the Ki came to 186 nM.

Take `Cc1cc(Oc2nccc3cc[nH]c23)ccc1-c1c(C)n[nH]c(=O)c1C` [Example 69, 4,6-dimethyl-5-[2-methyl-4-(1H-pyrrolo[2,3-c]pyridin-7-yloxy)phenyl]pyridazin-3(2H)-one]: the Ki is 126 nM.

For the compound `Cc1cc(Oc2nccc3ncsc23)ccc1-c1c(C)ncc2nccn12` (single isomer, unassigned; ent-1) [Example 61, 4-[3-methyl-4-(6-methylimidazo[1,2-a]pyrazin-5-yl)phenoxy][1,3]thiazolo[5,4-c]pyridine, ENT-1], the Ki turned out to be 151 nM.

For the compound `Cc1ncnc(C)c1-c1ccc(Oc2ncnc3ccsc23)c(F)c1C` [Example 20, 4-[4-(4,6-dimethylpyrimidin-5-yl)-2-fluoro-3-methylphenoxy]thieno[3,2-d]pyrimidine], the Ki stood at 121 nM.

Turning to `Cc1cc(Oc2nccc3ccsc23)ccc1-c1c(C)ncnc1C#N` (single isomer, unassigned; ent-1) [Example 45, 6-methyl-5-[2-methyl-4-(thieno[2,3-c]pyridin-7-yloxy)phenyl]pyrimidine-4-carbonitrile, ENT-1], the Ki is 14.3 nM.

`Cc1cc(Oc2nccc3cc[nH]c23)ccc1-c1c(C)ncnc1C#N` [Example 55, 6-methyl-5-[2-methyl-4-(1H-pyrrolo[2,3-c]pyridin-7-yloxy)phenyl]pyrimidine-4-carbonitrile]: the Ki was found to be 614 nM.

`Cc1ncnc(C)c1-c1ccc(Oc2nccc3ncsc23)c(F)c1C` [Example 66, 4-[4-(4,6-dimethylpyrimidin-5-yl)-2-fluoro-3-methylphenoxy][1,3]thiazolo[5,4-c]pyridine]: the Ki was 175 nM.

For the compound `Cc1cc(Oc2nccc3ncsc23)ccc1-c1c(C)ncnc1C` [Example 58, 4-[4-(4,6-dimethylpyrimidin-5-yl)-3-methylphenoxy][1,3]thiazolo[5,4-c]pyridine], the Ki turned out to be 75.1 nM. Next, `Cc1cc(Oc2nccc3ncsc23)ccc1-c1c(C)ncc2nccn12` (single isomer, unassigned; ent-2) [Example 62, 4-[3-methyl-4-(6-methylimidazo[1,2-a]pyrazin-5-yl)phenoxy][1,3]thiazolo[5,4-c]pyridine, ENT-2]: 239 nM. Then `Cc1ncnc(C)c1-c1ccc(Oc2nccc3ccsc23)cc1C#N` [Example 49, 2-(4,6-dimethylpyrimidin-5-yl)-5-(thieno[2,3-c]pyridin-7-yloxy)benzonitrile], with 16.3 nM; and `COc1cc(Oc2nccc3ccsc23)ccc1-c1c(C)ncnc1C` [Example 48, 7-[4-(4,6-dimethylpyrimidin-5-yl)-3-methoxyphenoxy]thieno[2,3-c]pyridine], with 13.5 nM. Turning to `Cc1ncnc(C)c1-c1cc(F)c(Oc2ncnc3ccsc23)c(F)c1` [Example 33, 4-[4-(4,6-dimethylpyrimidin-5-yl)-2,6-difluorophenoxy]thieno[3,2-d]pyrimidine], the Ki came to 864 nM.

Consider `Cc1cc(Oc2nccc3ccoc23)ccc1-c1c(C)ncnc1C#N` [Example 52, 5-[4-(furo[2,3-c]pyridin-7-yloxy)-2-methylphenyl]-6-methylpyrimidine-4-carbonitrile], for which the Ki came out at 212 nM. Next, `Cc1n[nH]c(=O)c(C)c1-c1ccc(Oc2nccc3ncsc23)cc1` [Example 28, 4,6-dimethyl-5-[4-([1,3]thiazolo[5,4-c]pyridin-4-yloxy)phenyl]pyridazin-3(2H)-one]: 25 nM; `Cc1cc(Oc2nccc3ncsc23)ccc1-c1c(C)ncc(=O)n1C` (single isomer, unassigned) [Example 30, (+)-1,5-dimethyl-6-[2-methyl-4-([1,3]thiazolo[5,4-c]pyridin-4-yloxy)phenyl]pyrazin-2(1H)-one]: 116 nM; `Cc1cc(Oc2nccc3ncsc23)ccc1-c1c(C)cnnc1C` (single isomer, unassigned) [Example 64, (+)-4-[4-(3,5-dimethylpyridazin-4-yl)-3-methylphenoxy][1,3]thiazolo[5,4-c]pyridine]: 32.3 nM.

`Cc1cc(Oc2ncnc3ncsc23)ccc1-c1c(C)ncnc1C` [Example 57, 7-[4-(4,6-dimethylpyrimidin-5-yl)-3-methylphenoxy][1,3]thiazolo[4,5-d]pyrimidine]: the Ki was determined as 2340 nM.

For the compound `Cc1cc(Oc2ncnc3ccsc23)ccc1-c1c(C)ncc(=O)n1C` [Example 15, 1,5-dimethyl-6-[2-methyl-4-(thieno[3,2-d]pyrimidin-4-yloxy)phenyl]pyrazin-2(1H)-one], the inhibitory constant (Ki) turned out to be 34.5 nM. Next, `Cc1ncnc(C)c1-c1cc(F)c(Oc2nccc3ccsc23)cc1F` [Example 41, 7-[4-(4,6-dimethylpyrimidin-5-yl)-2,5-difluorophenoxy]thieno[2,3-c]pyridine]: 24.3 nM; `Cc1ncnc(C#N)c1-c1ccc(Oc2nccc3ccsc23)cc1F` [Example 13, 5-[2-fluoro-4-(thieno[2,3-c]pyridin-7-yloxy)phenyl]-6-methylpyrimidine-4-carbonitrile]: 34.5 nM. Then `Cc1ncnc(C)c1-c1cc(F)c(Oc2nccc3ccsc23)c(F)c1` [Example 37, 7-[4-(4,6-dimethylpyrimidin-5-yl)-2,6-difluorophenoxy]thieno[2,3-c]pyridine], with 79.8 nM; and `Cc1cc(Oc2nccc3cc[nH]c23)ccc1-c1c(C)ncc2nccn12` [Example 54, 6-methyl-5-[2-methyl-4-(1H-pyrrolo[2,3-c]pyridin-7-yloxy)phenyl]imidazo[1,2-a]pyrazine], with 68.9 nM; and `Cc1n[nH]c(=O)c(C)c1-c1ccc(Oc2ncnc3ccsc23)cc1` [Example 67, 4,6-dimethyl-5-[4-(thieno[3,2-d]pyrimidin-4-yloxy)phenyl]pyridazin-3(2H)-one], with 17.7 nM. Consider `Cc1cc(Oc2nccc3cnsc23)ccc1-c1c(C)n[nH]c(=O)c1C` [Example 3, 4,6-dimethyl-5-[2-methyl-4-([1,2]thiazolo[5,4-c]pyridin-7-yloxy)phenyl]pyridazin-3(2H)-one], for which the Ki worked out at 10.9 nM.

With `Cc1ncnc(C)c1-c1ccc(Oc2ncnc3ccsc23)c(F)c1` [Example 19, 4-[4-(4,6-dimethylpyrimidin-5-yl)-2-fluorophenoxy]thieno[3,2-d]pyrimidine], the Ki was found to be 117 nM.

Consider `Cc1ncnc(C)c1-c1cc(F)c(Oc2nccc3ncsc23)c(F)c1` [Example 32, 4[4-(4,6-dimethylpyrimidin-5-yl)-2,6-difluorophenoxy][1,3]thiazolo[5,4-c]pyridine], for which the inhibitory constant (Ki) worked out at 1060 nM.

As to `Cc1cc(Oc2nccc3ccsc23)ccc1-n1c(C)nc2cnccc21` [Example 8, 2-methyl-1-[2-methyl-4-(thieno[2,3-c]pyridin-7-yloxy)phenyl]-1H-imidazo[4,5-c]pyridine], the inhibitory constant (Ki) was found to be 13.1 nM.
